Data published in PMC8112869, “Therapeutic inhibition of keratinocyte TRPV3 sensory channel by local anesthetic dyclonine” (eLife, 2021).

Columns and labels:
[1] = molecular target: T1, TRPV2 (Rattus norvegicus, UniProt Q9WUD2); assay: Whole-cell recording of 2-APB-activated TRPV2 in HEK 293T cells; type: cell-based
T1 construct: expressed in transfected cells; host or cells: HEK 293T
Text: (§1) The WT mouse TRPV3 (mTRPV3), human TRPV3 (hTRPV3), rat TRPV1, rat TRPV2, rat TRPM8, and mouse TRPA1 cDNAs were generously provided by Dr. Feng Qin (State University of New York at Buffalo, Buffalo, USA). The GFP-mTRPV3 WT and the mutants (mTRPV3-G573S and mTRPV3-G573C) in pcDNA4/TO vector were gifts from Dr. Michael X Zhu (The University of Texas Health Science Center at Houston, Houston, USA). The WT fTRPV3 was kindly provided by Dr. Makoto Tominaga (Department of Physiological Sciences, SOKENDAI, Okazaki, Japan). All mutations were made using the overlap-extension polymerase chain reaction method as previously described ([Tian et al., 2019]). The resulting mutations were then verified by DNA sequencing. […]
(§2) Conventional whole-cell and excised patch-clamp recording methods were used. […] For a subset of recordings, currents were amplified using an Axopatch 200B amplifier (Molecular Devices, Sunnyvale, CA) and recorded through a BNC-2090/MIO acquisition system (National Instruments, Austin, TX) using QStudio developed by Dr. Feng Qin at State University of New York at Buffalo. […] As determined by the conductance tests, the solution around a patch under study was fully controlled by the application of a flow rate of 100 μl/min or greater. […]

[2] = molecular target: T2, TRPV3 L655A (Mus musculus, UniProt Q8K424, L655A); assay: Whole-cell recording of TRPV3 mutant L655A in HEK 293T cells; type: cell-based; conditions: 2-APB (1 mM)-evoked, –60 mV, read-out: IC50 for inhibition of TRPV3 mutant
T2 construct: expressed in transfected cells; host or cells: HEK 293T
Text: as §1, §2

[3] = tested on: TRPV3+/+ and TRPV3-/- mice; assay: Hot plate (55°C) paw withdrawal latency, Hargreaves test; type: in vivo, mouse
Experimental: All tests were conducted during the light phase of the light/dark cycle by a trained observer blind to the genotype. Mice were habituated to the testing room for 60 min prior to the behavioral tests unless otherwise stated. Hargreaves test was performed as described previously ([Wang et al., 2018]). All behavioral experiments were conducted in a double-blind manner. For measurement of thermal hyperalgesia, animals were placed individually, 30 min after injection, on a hot plate (Bioseb, Chaville, France) with the temperature adjusted to 55°C. The withdrawal latency of each hind paw was determined until nocifensive reaction appeared (licking foot). Right hind paws of mice were injected intraplantarly with 10 μl normal saline (0.9% NaCl). Left hind paws of mice were injected intraplantarly with 10 μl normal saline (supplemented with 10 or 50 μM dyclonine).

[4] = molecular target: frog TRPV3 (fTRPV3) (Xenopus tropicalis, UniProt F6UZP3); assay: Whole-cell recording of 2-APB-evoked currents in fTRPV3-expressing HEK 293T cells; type: cell-based
Text: as §1, §2

[5] = molecular target: T3, TRPV3 I674A (Mus musculus, UniProt Q8K424, I674A); assay: Whole-cell recording of TRPV3 mutant I674A in HEK 293T cells; type: cell-based; conditions: 2-APB (1 mM)-evoked, –60 mV, read-out: IC50 for inhibition of TRPV3 mutant
T3 construct: expressed in transfected cells; host or cells: HEK 293T
Text: as §1, §2

[6] = molecular target: T4, TRPV3 I637A (Mus musculus, UniProt Q8K424, I637A); assay: Whole-cell recording of TRPV3 mutant I637A in HEK 293T cells; type: cell-based; conditions: 2-APB (1 mM)-evoked, –60 mV, read-out: IC50 for inhibition of TRPV3 mutant
T4 construct: expressed in transfected cells; host or cells: HEK 293T
Text: as §1, §2

frog TRPV3 (fTRPV3), sequence (F6UZP3 entry or part of it): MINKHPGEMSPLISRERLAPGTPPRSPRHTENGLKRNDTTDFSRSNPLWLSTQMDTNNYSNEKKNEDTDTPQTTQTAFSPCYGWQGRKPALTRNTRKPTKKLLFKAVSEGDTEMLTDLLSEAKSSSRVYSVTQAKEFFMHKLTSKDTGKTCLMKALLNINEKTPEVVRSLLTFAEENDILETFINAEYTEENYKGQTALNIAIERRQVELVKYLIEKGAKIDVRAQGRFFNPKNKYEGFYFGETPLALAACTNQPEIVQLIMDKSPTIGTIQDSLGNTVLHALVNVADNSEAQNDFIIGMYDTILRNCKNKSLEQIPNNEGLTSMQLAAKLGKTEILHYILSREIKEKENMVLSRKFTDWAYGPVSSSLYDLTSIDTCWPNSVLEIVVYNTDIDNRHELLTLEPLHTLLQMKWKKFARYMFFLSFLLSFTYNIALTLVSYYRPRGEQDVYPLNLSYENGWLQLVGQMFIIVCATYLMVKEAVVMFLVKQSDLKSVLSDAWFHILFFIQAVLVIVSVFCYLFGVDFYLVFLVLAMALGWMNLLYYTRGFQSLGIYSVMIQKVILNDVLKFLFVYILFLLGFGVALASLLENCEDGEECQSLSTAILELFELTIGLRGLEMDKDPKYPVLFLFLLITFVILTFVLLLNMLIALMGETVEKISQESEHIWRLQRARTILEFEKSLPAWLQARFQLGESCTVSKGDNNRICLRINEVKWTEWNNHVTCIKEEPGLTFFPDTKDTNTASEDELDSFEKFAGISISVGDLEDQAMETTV
T1 sequence (Q9WUD2 whole entry): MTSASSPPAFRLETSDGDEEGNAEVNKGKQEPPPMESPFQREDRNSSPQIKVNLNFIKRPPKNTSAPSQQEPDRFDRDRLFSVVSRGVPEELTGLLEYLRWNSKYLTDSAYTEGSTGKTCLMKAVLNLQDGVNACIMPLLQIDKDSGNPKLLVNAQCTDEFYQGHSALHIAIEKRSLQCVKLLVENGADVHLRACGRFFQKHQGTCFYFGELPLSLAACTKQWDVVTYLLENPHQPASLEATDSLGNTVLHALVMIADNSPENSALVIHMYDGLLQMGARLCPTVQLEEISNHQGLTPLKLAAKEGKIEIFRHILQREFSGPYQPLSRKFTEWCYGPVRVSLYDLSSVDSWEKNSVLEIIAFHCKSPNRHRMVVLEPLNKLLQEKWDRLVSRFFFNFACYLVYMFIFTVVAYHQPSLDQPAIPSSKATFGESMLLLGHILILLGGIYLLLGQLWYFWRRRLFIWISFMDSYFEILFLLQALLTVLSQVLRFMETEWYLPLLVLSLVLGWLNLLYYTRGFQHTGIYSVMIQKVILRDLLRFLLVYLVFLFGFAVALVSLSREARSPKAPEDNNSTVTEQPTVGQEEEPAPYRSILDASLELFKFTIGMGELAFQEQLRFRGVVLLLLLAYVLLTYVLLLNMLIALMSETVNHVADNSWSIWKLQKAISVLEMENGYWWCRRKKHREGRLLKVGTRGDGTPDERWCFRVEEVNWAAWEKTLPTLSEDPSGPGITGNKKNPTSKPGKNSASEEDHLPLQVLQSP
T2 sequence (Q8K424 whole entry L655A): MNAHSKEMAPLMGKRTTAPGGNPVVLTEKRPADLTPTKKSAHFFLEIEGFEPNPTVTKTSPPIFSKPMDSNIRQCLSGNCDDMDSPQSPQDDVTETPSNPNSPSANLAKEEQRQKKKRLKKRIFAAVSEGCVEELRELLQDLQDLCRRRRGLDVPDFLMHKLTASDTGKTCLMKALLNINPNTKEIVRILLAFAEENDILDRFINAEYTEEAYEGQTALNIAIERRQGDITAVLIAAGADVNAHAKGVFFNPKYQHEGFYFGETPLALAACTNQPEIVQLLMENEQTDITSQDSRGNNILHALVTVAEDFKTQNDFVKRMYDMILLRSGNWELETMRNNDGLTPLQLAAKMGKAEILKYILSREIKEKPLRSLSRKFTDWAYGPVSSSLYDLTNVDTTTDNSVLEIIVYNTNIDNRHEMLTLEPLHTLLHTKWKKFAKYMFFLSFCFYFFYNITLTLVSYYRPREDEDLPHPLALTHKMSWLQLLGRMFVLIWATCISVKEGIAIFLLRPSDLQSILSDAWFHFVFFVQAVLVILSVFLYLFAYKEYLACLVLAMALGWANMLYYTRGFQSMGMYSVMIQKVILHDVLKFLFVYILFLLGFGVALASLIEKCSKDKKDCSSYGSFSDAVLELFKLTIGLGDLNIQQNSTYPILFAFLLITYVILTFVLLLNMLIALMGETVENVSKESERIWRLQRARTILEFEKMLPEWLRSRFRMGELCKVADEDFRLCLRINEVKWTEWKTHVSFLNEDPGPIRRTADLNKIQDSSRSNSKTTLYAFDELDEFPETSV
T4 sequence (Q8K424 whole entry I637A): as the sequence (Q8K424 whole entry L655A) above, with I637A, A655L counted along it
T3 sequence (Q8K424 whole entry I674A): as the sequence (Q8K424 whole entry L655A) above, with A655L, I674A counted along it

In the case of `CCCCOc1ccc(C(=O)CCN2CCCCC2)cc1` [dyclonine], the “Hill coefficient nH” value [1] is reported as 2.9 ± 0.50, the “reduction in current amplitude” value ([1]; 10 μM dyclonine, 2-APB-activated) is reported as 6% ± 1% and the IC50 [2] is reported as 287 ± 10.4 µM. The “paw withdrawal latencies (PWL)” value ([3]; TRPV3+/+ mice, intraplantar 10 μM dyclonine) was 18.08 ± 0.03 s, the “paw withdrawal latencies (PWL)” value ([3]; TRPV3+/+ mice, intraplantar 50 μM dyclonine) was 18.82 ± 0.42 s and the “paw withdrawal latencies (PWL)” value ([3]; TRPV3-/- mice, intraplantar 10 μM dyclonine) was 18.23 ± 0.52 s. The “paw withdrawal latencies (PWL)” value ([3]; TRPV3-/- mice, intraplantar 50 μM dyclonine) was 18.61 ± 0.46 s, the “Hill coefficient nH” value [4] was 1.6 ± 0.34 and the IC50 ([4]; 3 mM 2-APB-evoked, –60 mV, read-out: IC50 on inhibition of fTRPV3 currents) was 12.3 µM. It also gave an IC50 [5] of 15.1 ± 2.1 µM and an IC50 [6] of 6.1 ± 0.43 µM.
